# Experimental data published in US20120045523A1, “COMBINATION OF A TLR3 LIGAND AND A CHEMOTHERAPY AGENT WHICH ACTS ON THE INTRINSIC "APOPTOSIS" PATHWAY IN THE TREATMENT OF CANCER” (UNIVERSITE CLAUDE BERNARD LYON I, priority 2008, published 2012).
# Read-outs that look alike come from different tables or passages of the source.
# Tests used:
# [1] = system: NCI-H292 cells; test: Number of living cells (MTS, CellTiter 96 AQueous One) after chemotherapy and/or poly(I:C); settings: for CI (combination index): agent in combination with poly(I:C), average CI; for nature of interaction with poly(I:C), from CI: combination with poly(I:C)
# [2] = system: NCI-H1703 cells; test: as above; type: cell-based, human; settings: for CI (combination index) / IC50 / nature of interaction with poly(I:C), from CI / reduction of the number of living cells: NCI-H1703; for CI (combination index): agent in combination with poly(I:C), average CI; for nature of interaction with poly(I:C), from CI: combination with poly(I:C); for cytotoxicity at 4 µM: NCI-H1703, NCI-H1703, FIG. 1B, read-out: loss of viable cells; for reduction of the number of living cells: FIG. 1A
# [3] = system: NCI-H292 cells; test: Annexin V-FITC/propidium iodide labeling, flow cytometry (apoptosis); type: cell-based, human; settings: NCIH-292; annexin V after 24 h; concentrations at IC50; FIG. 4
# Source text: The duplexes of control small interfering RNA (siRNA; Dharmacon) and siRNA specific for caspase 8 and caspase 9 (Qiagen) used are as follows: 1) control: ON-TARGETplus siCONTROL Non-Targeting siRNA #3; caspase 8 sense 5′-r(GAG UCU GUG CCC AAA UCA A)dTdT-3′, caspase 8 antisense 5′-r(UUG AUU UGG GCA CAG ACU C)dTdT-3′; caspase 9 sense 5′-r(GAG UGG CUC CUG GUA CGU U)dTdT-3′, caspase 9 antisense 5′-r(AAC GUA CCA GGA GCC ACU C)dTdT-3′. The siRNAs were transfected by the HiPerFect (Qiagen) transfection reagent according to the manufacturer's recommendations. Briefly, NCI-H1703 or NCI-H292 cells are cultured in 100 mm dishes, dislodged by trypsin, placed in 24-well plates at a concentration of 50,000 cells in 400 μl of medium per well and incubated at 37° C. during preparation of the mixes. Mixes for each well of a 24-well plate are prepared as follows: the siRNA duplexes are diluted in 100 μl of serum-free and antibiotic-free culture medium, 3 μl of HiPerFect is added, and then the solution is vortexed and incubated for 5-10 min at room temperature. […] For these conditions, the effectiveness of caspase 8 and caspase 9 siRNAs in decreasing the level of expression of caspase 8 and caspase 9 proteins, respectively, were measured by western blot, and reaches roughly 85% for caspase 8 siRNA and 75% for caspase 9 siRNA. […]
# [4] = system: NCI-H1703 cells; test: as above; type: cell-based, human; settings: for effect of 2 h exposure to agent before poly(I:C) on percentage of apoptotic cells: NCIH-1703, annexin V after 24 h, concentrations at IC50, FIG. 4
# Source text: The duplexes of control small interfering RNA (siRNA; Dharmacon) and siRNA specific for caspase 8 and caspase 9 (Qiagen) used are as follows: 1) control: ON-TARGETplus siCONTROL Non-Targeting siRNA #3; caspase 8 sense 5′-r(GAG UCU GUG CCC AAA UCA A)dTdT-3′, caspase 8 antisense 5′-r(UUG AUU UGG GCA CAG ACU C)dTdT-3′; caspase 9 sense 5′-r(GAG UGG CUC CUG GUA CGU U)dTdT-3′, caspase 9 antisense 5′-r(AAC GUA CCA GGA GCC ACU C)dTdT-3′. The siRNAs were transfected by the HiPerFect (Qiagen) transfection reagent according to the manufacturer's recommendations. Briefly, NCI-H1703 or NCI-H292 cells are cultured in 100 mm dishes, dislodged by trypsin, placed in 24-well plates at a concentration of 50,000 cells in 400 μl of medium per well and incubated at 37° C. during preparation of the mixes. Mixes for each well of a 24-well plate are prepared as follows: the siRNA duplexes are diluted in 100 μl of serum-free and antibiotic-free culture medium, 3 μl of HiPerFect is added, and then the solution is vortexed and incubated for 5-10 min at room temperature. 100 μl of mix is then added drop by drop to the cells and the mixture is homogenized by shaking the plate. The culture medium is changed the following day. The final siRNA concentration is 5 nM and treatment with poly(I:C) begins 72 h after transfection. For these conditions, the effectiveness of caspase 8 and caspase 9 siRNAs in decreasing the level of expression of caspase 8 and caspase 9 proteins, respectively, were measured by western blot, and reaches roughly 85% for caspase 8 siRNA and 75% for caspase 9 siRNA.
# In relation to the mechanism of reduction of the number of living cells, the percentage of cells labeled with annexin V after culture after treatment with poly(I:C) was determined by flow cytometry. […] Seventy-two hours after transfection of the control (sictrl), caspase (sicasp8), caspase 9 (sicasp9) or caspase 8+caspase 9 (sicasp8+9) siRNAs, NCI-H1703 cells are treated with 100 μg/ml of poly(I:C) for 24 h or are not treated. The percentage of annexin V-positive cells is measured by flow cytometry. The results presented are the average of three experiments carried out independently. Error Bar, ±SE.
# Poly(I:C) induces apoptosis of NSCLC NCIH-1703 and NCIH-292 cell lines. To determine whether the greater reduction in the number of cells alive after treatment with the combination of poly(I:C) and cisplatin or etoposide resulted at least partially from an increase in apoptosis, the cells were labeled with annexin V after 24 h of culture as described in the “Materials and methods” section above.
# [5] = system: NCI-H1703 cells; test: Viability of cells cultured 24 h with poly(I:C) and wortmannin; type: cell-based, human
# Method: Similarly, a study was undertaken to determine the viability of cells of the NCI-H1703 human squamous cell lung cancer cell line cultured for 24 h in the presence of TLR3 ligand (poly(I:C), 100 μg/ml) at various concentrations (0 μM, 0.1 μM and 1.0 μM) of wortmannin, a specific PI3 kinase inhibitor.
# In the same way, a study was undertaken to determine the percentage of cells of the NCI-H1703 human squamous cell lung cancer cell line in apoptosis (FACS analysis after labeling with annexin V-FITC/propidium iodide) after culture for 24 h in the presence of TLR3 ligand (poly(I:C), 100 μg/ml) with various concentrations (0 μM, 0.1 μM and 1.0 μM) of specific PI3 kinase inhibitor, wortmannin (WM). […] Moreover, the synergy is strong: with 1 μM wortmannin alone, 6% fewer living cells are observed after 24 h; with 100 μg/ml poly(I:C) alone, 26% fewer living cells are observed after 24 h; when both molecules are used in combination at these same concentrations, however, 71% fewer living cells are observed after 24 h.
# [6] = system: TLR3; test: Apoptosis induced by TLR3 ligands, with siRNA inhibition of receptors; type: cell-based
# Source text: “Specific TLR3 ligand” refers to a ligand that is recognized only by the TLR3 membrane receptor, and not by intracellular receptors such as RIG-I, MDA-5 and PKR. Examples of such a ligand includes the ligand poly(A:U) or specific synthetic double-stranded RNA, in contrast with poly(I:C) whose activity is based not only on its interaction with TLR3 but also by intracellular receptors, whereas poly(A:U) acts specifically on TLR3.
# [7] = chemotherapeutic agent used alone, 2 h exposure, then 70 h culture, read-out: IC50
# [8] = NCI-H292, chemotherapeutic agent used alone, 2 h exposure, then 70 h culture
# [9] = Homo sapiens, chemotherapeutic agent used alone, 2 h exposure, then 70 h culture, read-out: IC50
"IC50 ([1]; Homo sapiens, NCI-H292)","IC50 [2, 9]",Molecule,CI (combination index) ([1]; NCI-H292),"nature of interaction with poly(I:C), from CI ([1]; NCI-H292)",CI (combination index) [2],"nature of interaction with poly(I:C), from CI [2]",also measured
133 µM,,"O=c1[nH]cc(F)c(=O)[nH]1 [5-Fluouracile, 5-fluorouracil]",0.78 ± 0.09,moderate synergy,,,
10.6 µM,,"CC(=O)O[C@@]12CO[C@@H]1C[C@H](O)[C@@]1(C)C(=O)[C@H](O)C3=C(C)[C@@H](OC(=O)[C@H](O)[C@@H](NC(=O)OC(C)(C)C)c4ccccc4)C[C@@](O)([C@@H](OC(=O)c4ccccc4)[C@H]21)C3(C)C [Docetaxel, docetaxel]",0.68 ± 0.2,moderate synergy,,,
1.03 µM,3.73 µM,"COc1cccc2c1C(=O)c1c(O)c3c(c(O)c1C2=O)C[C@@](O)(C(=O)CO)C[C@@H]3O[C@H]1C[C@H](N)[C@H](O)[C@H](C)O1 [Doxorubicin, doxorubicin]",0.62 ± 0.08,strong synergy,0.72 ± 0.06,strong synergy,
0.6 µM,0.9 µM,"Nc1ccn([C@@H]2O[C@H](CO)[C@@H](O)C2(F)F)c(=O)n1 [Gemcitabine, gemcitabine]",1.3 ± 0.24,antagonism,1.0 ± 0.07,additivity without synergy,
0.21 µM,0.12 µM,"CC(=O)O[C@H]1C(=O)[C@@]2(C)[C@H]([C@H](OC(=O)c3ccccc3)[C@]3(O)C[C@H](OC(=O)[C@H](O)[C@@H](NC(=O)c4ccccc4)c4ccccc4)C(C)=C1C3(C)C)[C@]1(OC(C)=O)CO[C@@H]1C[C@@H]2O [Paclitaxel, paclitaxel]",0.71 ± 0.0064,moderate synergy,0.83 ± 0.012,moderate synergy,

# The next lines start with the molecule.
Molecule,"IC50 ([1]; Homo sapiens, NCI-H292)","IC50 [2, 9]",CI (combination index) ([1]; NCI-H292),"nature of interaction with poly(I:C), from CI ([1]; NCI-H292)",CI (combination index) [2],"nature of interaction with poly(I:C), from CI [2]",also measured
"N.N.[Cl][Pt][Cl] [Cisplatin, cisplatin]",,,0.50 ± 0.08,strong synergy,0.62 ± 0.03,strong synergy,"IC50 [2, 7]: 1.1 µM; effect of 2 h exposure to agent before poly(I:C) on percentage of apoptotic cells [3]: statistically significant only for the NCIH-292 cell line; IC50 [1, 8]: 3.4 µM; effect of 2 h exposure to agent before poly(I:C) on percentage of apoptotic cells [4]: increases the percentage of apoptotic cells"
"COc1cc([C@@H]2c3cc4c(cc3[C@@H](O[C@@H]3O[C@@H]5CO[C@@H](C)O[C@H]5[C@H](O)[C@H]3O)[C@H]3COC(=O)[C@H]23)OCO4)cc(OC)c1O [Etoposide, etoposide]",18.7 µM,32.7 µM,0.68 ± 0.11,strong synergy,0.59 ± 0.06,strong synergy,"cytotoxicity at 4 µM ([2]; Homo sapiens, etoposide 4 μM, then addition of 60 μg/ml poly(I:C)): ~60%; cytotoxicity at 4 µM ([2]; Homo sapiens, etoposide alone 4 μM): ~25%; effect of 2 h exposure to agent before poly(I:C) on percentage of apoptotic cells [3]: significant additive effect; IC50 ([1]; Homo sapiens, NCI-H292, read-out: concentration of etoposide in combination that decreases living cells by 50%): ~8 µM; effect of 2 h exposure to agent before poly(I:C) on percentage of apoptotic cells [4]: significant additive effect"
"O=C1[O][Pt]2([NH][C@@H]3CCCC[C@H]3[NH]2)[O]C1=O [Oxaliplatin, oxaliplatin]",,,,strong synergy,,strong synergy,"IC50 [2, 7]: 170 µM; IC50 [1, 8]: 123 µM"
COC[C@H]1OC(=O)c2coc3c2[C@@]1(C)C1=C(C3=O)[C@@H]2CCC(=O)[C@@]2(C)C[C@H]1OC(C)=O [wortmannin],,,,,,,fewer living cells ([5]; 1 μM wortmannin + 100 μg/ml poly(I:C) in combination): 71%; fewer living cells ([5]; 1 μM wortmannin alone): 6%
polyadenylic-polyuridylic acid [poly(A:U)],,,,,,,induction of apoptosis ([6]; cells sensitive to poly(I:C)): triggers apoptosis
polyinosinic-polycytidylic acid [poly(I:C)],,,,,,,"reduction of the number of living cells ([2]; poly(I:C) 4 μg/ml after pre-incubation for 2 h with 20 μM etoposide): ~70%; reduction of the number of living cells ([2]; poly(I:C) alone 4 μg/ml): ~35%; IC50 ([2]; poly(I:C) used alone, 50% fewer cells than untreated control): 19.9 µg/mL; fewer living cells ([5]; 100 μg/ml poly(I:C) alone): 26%; effect of siRNA inhibition of RIG-I, MDA-5 and PKR expression on poly(I:C) apoptotic activity ([6]; siRNA against RIG-I, MDA-5, PKR): has no effect; effect of siRNA inhibition of TLR3 or TRIF on poly(I:C)-induced apoptosis ([6]; siRNA against TLR3 or TRIF): inhibits apoptosis; IC50 ([1]; NCI-H292, poly(I:C) used alone, 50% fewer cells than untreated control): 14.3 µg/mL; fraction of cells in apoptosis (annexin V-positive) ([4]; NCI-H1703, 100 μg/ml poly(I:C), 24 h, 11% in control wells, FIG. 2): ⅓; percentage of apoptotic cells (annexin V-positive) ([4]; NCI-H1703, 100 μg/ml poly(I:C), 24 h, caspase 8 expression inhibited by siRNA): ~20%; effect of suppression of caspase 9 expression on poly(I:C)-induced apoptosis ([4]; NCI-H1703, 100 μg/ml poly(I:C), 24 h, caspase 9 siRNA): no significant effect"
